Here are results for ten compounds from patent US20260256738A1, “METHODS OF TREATING CANCER WITH A RAS MUTATION” (Immuneering Corporation, priority 2023, published 2026).

For one data set, the target named is CYP450 2C19 (Homo sapiens, UniProt P33261). The experiment in a line: CYP450 Panel. Type of data set: in vitro ADME. The note with it: 10 μM; substrate mephenytoin; in % (unit assumed).
Another data set relates to Caco-2. As to the kind of experiment: Caco-2 permeability. As to conditions: 10 μM, 2 hrs. In general terms: Passage across Caco-2 layers is used to estimate intestinal permeability.
Data set [1] is described as follows: Plasma Stability (% remaining @2 hour). The data set is classed as in vitro ADME. As to conditions: SD Rat; 2 μM.
Data set [2] in a line: Plasma Stability (% remaining @2 hour). Type of data set: in vitro ADME. The note with it: Human; 2 μM.
Data set [3] can be described thus: Microsome Stability (% remaining @1 hour). The data set is classed as in vitro ADME. The note with it: Human; 2 μM.
The next data set concerns the target CYP450 2D6 (Homo sapiens, UniProt P10635). As to the kind of experiment: CYP450 Panel. The note with it: 10 μM; substrate dextromethorphan; in % (unit assumed).
The next data set addresses CYP450 3A4 (Homo sapiens, UniProt P08684). The experiment in a line: CYP450 Panel. Type of data set: in vitro ADME. The note with it: 10 μM.
Data set [4] is described as follows: Microsome Stability (% remaining @1 hour). Type of data set: in vitro ADME. As to conditions: SD Rat; 2 μM.
Data set [5] in a line: Microsome Stability (% remaining @1 hour). Type of data set: in vitro ADME. As to conditions: Beagle Dog; 2 μM.
Data set [6] in a line: Microsome Stability (% remaining @1 hour). The note with it: CD-1 Mouse; 2 μM.
Data set [7] can be described thus: eLogD (lipophilicity; pH=7.4). The data set is classed as physicochemical. The method, then:
Test compounds were dissolved in DMSO at a concentration of 10 mM and further diluted with methanol:water 1:1. Samples were analyzed using gradient HPLC with three different isocratic mobile phases of 0.25% octanol in methanol (60, 65 and 70%) and 20 mM MOPS buffer (pH 7.4) with decylamine. If needed, (for low E log Doct compounds) the isocratic mobile phases were adjusted to e.g. 40, 45 and 50% methanol. Peaks were detected using a diode array at absorbance 220-320 nm.
Capacity factors data (k′_(tr−_t0)/t0) obtained at various amounts of methanol were extrapolated to 0% methanol and k′w values are determined using a linear procedure. E log Doct (7.4) is calculated using a series of reference standards with known Log D values. Each experiment was performed in triplicate.

The nature of data set [8]: Plasma Stability (% remaining @2 hour). The data set is classed as in vitro ADME. The note with it: CD-1 Mouse; 2 μM.
Data set [9] is described as follows: Plasma Stability (% remaining @2 hour). The data set is classed as in vitro ADME. The note with it: Beagle Dog; 2 μM.
Data set [10] in a line: Tissue pharmacokinetics in Colon-26 tumor bearing mice, 2-hour post dose. The data set is classed as in vivo. As to conditions: single dose 100 mg/kg p.o. The procedure: Female mice (either athymic BALC/c nude, or BALB/c mice) were inoculated with a single subcutaneous injection of 0.2 ml of mouse Colon-26 cell suspension (1×10^5 cells per animal) in the inguinal region. Colon26 (C26) tumor bearing mice received a single dose (3 mice/treatment) of vehicle (10% DMSO/90% [20% SBE-R-CD in saline], pH 5) containing compounds at 100 mg/kg by gavage (p.o.) and 2-hour post dose humanely euthanized.
Blood was obtained through cardiac puncture into K+EDTA tubes, mixed by inversion and centrifuged to obtain the plasma. Tissues were excised, cleaned of surrounding tissues. All samples immediately snap frozen in liquid N2 prior to LC-MS/MS analysis (using Waters HSS T3 2.1×50 mm (1.8 um) LC column, and an API-6500 Electrospray MS unit).

A further data set concerns the target T1, CYP450 1A2 (Homo sapiens, UniProt P05177).
T1 sequence (P05177 1-516): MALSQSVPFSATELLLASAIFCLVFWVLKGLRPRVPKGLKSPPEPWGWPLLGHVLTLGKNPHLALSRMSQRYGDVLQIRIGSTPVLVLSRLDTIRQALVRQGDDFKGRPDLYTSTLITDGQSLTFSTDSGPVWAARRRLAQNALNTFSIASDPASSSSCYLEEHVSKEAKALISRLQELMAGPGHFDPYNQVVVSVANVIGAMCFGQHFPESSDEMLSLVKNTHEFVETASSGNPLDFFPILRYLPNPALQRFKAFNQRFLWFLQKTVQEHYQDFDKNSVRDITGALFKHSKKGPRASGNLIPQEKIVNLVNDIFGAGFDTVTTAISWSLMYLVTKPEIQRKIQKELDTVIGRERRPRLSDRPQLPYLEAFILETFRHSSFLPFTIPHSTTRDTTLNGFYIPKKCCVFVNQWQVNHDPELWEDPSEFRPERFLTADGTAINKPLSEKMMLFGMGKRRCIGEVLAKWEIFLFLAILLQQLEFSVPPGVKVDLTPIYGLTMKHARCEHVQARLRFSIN
As to the kind of experiment: CYP450 Panel. The note with it: 10 μM; substrate phenacetin; in % (unit assumed).

Data set [11] in a line: Human plasma pharmacokinetics of approved MEK inhibitors. Type of data set: in vivo. As to conditions: human dosing cycle.
The conditions of data set [12]: cited from earlier work.
The next data set addresses T2, CYP450 2C8 (Homo sapiens, UniProt P10632).
T2 sequence (P10632 1-490): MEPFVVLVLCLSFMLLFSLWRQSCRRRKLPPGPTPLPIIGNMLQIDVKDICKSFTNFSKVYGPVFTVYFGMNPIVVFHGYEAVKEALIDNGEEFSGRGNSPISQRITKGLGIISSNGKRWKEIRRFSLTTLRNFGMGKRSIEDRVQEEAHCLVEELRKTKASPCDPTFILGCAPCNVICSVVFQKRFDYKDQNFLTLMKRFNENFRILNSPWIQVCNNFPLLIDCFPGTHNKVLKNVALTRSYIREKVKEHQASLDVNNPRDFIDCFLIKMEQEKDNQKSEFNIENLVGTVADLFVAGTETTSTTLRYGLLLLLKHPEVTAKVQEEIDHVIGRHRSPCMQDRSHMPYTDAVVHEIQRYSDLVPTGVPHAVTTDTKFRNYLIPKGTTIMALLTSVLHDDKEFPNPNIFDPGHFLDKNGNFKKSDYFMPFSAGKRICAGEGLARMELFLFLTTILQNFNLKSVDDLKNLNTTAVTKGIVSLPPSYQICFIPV
As to the kind of experiment: CYP450 Panel. Type of data set: in vitro ADME. As to conditions: 10 μM; substrate amodiaquine.

The next data set deals with CYP450 2C9 (Homo sapiens, UniProt P11712). The experiment in a line: CYP450 Panel. Type of data set: in vitro ADME. As to conditions: 10 μM; substrate Diclofenac; in % (unit assumed).
CYP450 2C9, sequence (P11712 whole entry): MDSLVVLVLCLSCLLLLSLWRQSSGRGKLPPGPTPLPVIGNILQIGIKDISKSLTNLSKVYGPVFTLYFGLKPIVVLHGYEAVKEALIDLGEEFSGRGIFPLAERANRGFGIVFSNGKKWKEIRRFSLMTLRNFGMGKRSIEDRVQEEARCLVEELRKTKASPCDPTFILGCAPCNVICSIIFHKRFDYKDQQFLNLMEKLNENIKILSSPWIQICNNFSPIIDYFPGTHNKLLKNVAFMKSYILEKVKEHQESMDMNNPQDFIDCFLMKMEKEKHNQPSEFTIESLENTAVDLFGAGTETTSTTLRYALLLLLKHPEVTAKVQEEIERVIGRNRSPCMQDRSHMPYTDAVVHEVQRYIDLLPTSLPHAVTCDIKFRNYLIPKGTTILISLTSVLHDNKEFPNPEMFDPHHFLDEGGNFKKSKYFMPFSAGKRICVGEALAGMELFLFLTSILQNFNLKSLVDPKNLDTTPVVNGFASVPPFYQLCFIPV

CYP450 3A4, sequence (P08684 whole entry): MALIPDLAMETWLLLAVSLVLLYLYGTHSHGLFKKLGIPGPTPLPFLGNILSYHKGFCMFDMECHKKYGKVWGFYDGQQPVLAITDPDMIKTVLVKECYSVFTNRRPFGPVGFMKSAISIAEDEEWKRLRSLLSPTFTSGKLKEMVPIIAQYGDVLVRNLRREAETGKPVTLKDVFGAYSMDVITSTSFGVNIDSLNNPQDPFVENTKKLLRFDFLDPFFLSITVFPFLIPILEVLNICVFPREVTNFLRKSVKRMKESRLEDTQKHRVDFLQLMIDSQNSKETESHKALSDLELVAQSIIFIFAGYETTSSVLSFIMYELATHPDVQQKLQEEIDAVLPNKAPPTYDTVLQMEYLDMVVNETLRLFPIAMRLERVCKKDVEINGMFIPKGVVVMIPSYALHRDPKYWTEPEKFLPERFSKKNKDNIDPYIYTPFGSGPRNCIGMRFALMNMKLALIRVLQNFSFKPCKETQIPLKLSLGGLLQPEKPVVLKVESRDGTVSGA
CYP450 2C19, sequence (P33261 whole entry): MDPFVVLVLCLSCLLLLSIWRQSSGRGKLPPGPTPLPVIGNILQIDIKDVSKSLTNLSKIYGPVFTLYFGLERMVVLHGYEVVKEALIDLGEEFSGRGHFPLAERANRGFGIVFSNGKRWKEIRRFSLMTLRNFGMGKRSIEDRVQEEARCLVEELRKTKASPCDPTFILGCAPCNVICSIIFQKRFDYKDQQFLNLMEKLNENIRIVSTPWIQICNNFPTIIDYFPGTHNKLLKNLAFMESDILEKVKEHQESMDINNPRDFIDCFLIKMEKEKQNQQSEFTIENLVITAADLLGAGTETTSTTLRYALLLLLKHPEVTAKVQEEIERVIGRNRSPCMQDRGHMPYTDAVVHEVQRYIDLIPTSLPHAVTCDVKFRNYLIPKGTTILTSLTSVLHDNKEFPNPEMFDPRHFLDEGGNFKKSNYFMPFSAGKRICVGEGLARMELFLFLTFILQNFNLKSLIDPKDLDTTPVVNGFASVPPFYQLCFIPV
CYP450 2D6, sequence (P10635 whole entry): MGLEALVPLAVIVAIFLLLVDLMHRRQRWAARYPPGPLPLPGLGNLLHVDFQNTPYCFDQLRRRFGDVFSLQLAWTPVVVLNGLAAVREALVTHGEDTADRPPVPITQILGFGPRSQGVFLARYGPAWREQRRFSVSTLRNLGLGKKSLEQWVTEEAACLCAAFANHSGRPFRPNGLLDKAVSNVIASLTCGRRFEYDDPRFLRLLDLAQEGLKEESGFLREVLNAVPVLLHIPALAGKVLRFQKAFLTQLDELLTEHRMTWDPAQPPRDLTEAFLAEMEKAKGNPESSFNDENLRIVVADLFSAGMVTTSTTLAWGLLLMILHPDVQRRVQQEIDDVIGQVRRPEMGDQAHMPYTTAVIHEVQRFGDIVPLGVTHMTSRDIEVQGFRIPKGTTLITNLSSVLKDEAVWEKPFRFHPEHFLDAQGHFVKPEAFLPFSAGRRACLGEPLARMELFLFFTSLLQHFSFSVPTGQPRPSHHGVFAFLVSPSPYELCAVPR

As for `CNS(=O)(=O)Nc1nccc(Cc2c(C)c3ccc(Oc4ncccn4)cc3oc2=O)c1F` [Reference 2], the “CYP450 Panel 2C19” value at CYP450 2C19 is reported as −0.9. In the data set with Caco-2, the “A − B Permeability Ranking” value was “High”. Further, the “Plasma stability, % Remaining @2 hour” value in data set [1] was 99.8%; in data set [2], 91.1%; in data set [8] it was 92.9%; in data set [9] it was 99.8%. The “Microsome stability, % Remaining @1 hour” value amounted to 107.1% in data set [3], 102.0% in [4], 111.6% in data set [5] and 96.0% in data set [6]. Further, the “CYP450 Panel 2D6” value on CYP450 2D6 was found to be 3.4. On CYP450 3A4 (substrate midazolam), this compound registered a CYP450 Panel 3A4 (midazolam) of 16.6%. Besides, the CYP450 Panel 3A4 (testosterone) on CYP450 3A4 (substrate testosterone) turned out to be 15.7%. Moreover, the “eLogD (lipophilicity; pH = 7.4)” value in data set [7] came to 3.6. Besides, the Liver concentration in [10] is on record as 1990 ng/g. In data set [10], this compound registered a Muscle concentration of 550 ng/g. Further, the Plasma concentration in data set [10] came to 5670 ng/mL. The compound further gave a Tumor concentration in data set [10] of 819 ng/g. Besides, the “CYP450 Panel 1A2” value on CYP450 1A2 was determined as 0.8.

Turning to `CC(C)[N+](C)(CCOC(=O)C1c2ccccc2Oc2ccccc21)C(C)C` [Propantheline], the “Plasma stability, % Remaining @2 hour” value in [1] was 92.6%; in data set [2] it was 5.7%; in [8] it was 27.1%; in [9] it was 58.4%.

In the case of `O=C(c1ccc(F)c(F)c1Nc1ccc(I)cc1F)N1CC(O)([C@@H]2CCCCN2)C1` [cobimetinib], the “half-lives per (BID) cycle” value in data set [11] was ≤ 0.55 half-lives. Further, in [12] (human), the time to peak (Tmax) is 2.4 h and the human plasma half-life is recorded as 44 h.

`O=c1c(O)c(-c2ccc(O)c(O)c2)oc2cc(O)cc(O)c12` [Quercetin]: at CYP450 2C8, the CYP450 Panel 2C8 is 93.1%.

Take `Cn1cnc2c(F)c(Nc3ccc(Br)cc3F)c(C(=O)NOCCO)cc21` [Binimetinib]: the “half-lives per (BID) cycle” value in data set [11] is given as ≤ 3.4 half-lives. In data set [12] (in vivo), the half-life was 3.5 h.

For `CC(=O)Nc1cccc(-n2c(=O)n(C3CC3)c(=O)c3c(Nc4ccc(I)cc4F)n(C)c(=O)c(C)c32)c1` [trametinib], the “half-lives per (BID) cycle” value in data set [11] was ≤ 0.25 half-lives. Moreover, the human plasma half-life in data set [12] (human) is recorded as 96 h.

`COc1ccc2[nH]c([S+]([O-])Cc3ncc(C)c(OC)c3C)nc2c1` (centres unmarked) [Omeprazole]: the “CYP450 Panel 2C19” value on CYP450 2C19 turned out to be 61.6.

Regarding `CC[C@H](C)C(=O)O[C@H]1C[C@@H](C)C=C2C=C[C@H](C)[C@H](CC[C@@H]3C[C@@H](O)CC(=O)O3)[C@H]21` [Lovastatin], the “Plasma stability, % Remaining @2 hour” value in data set [1] was determined as 0.6%; in [2], 81.8%; in data set [8], 0.6%; in [9] it was 94.1%.

With `Nc1ccc(S(=O)(=O)Nc2ccnn2-c2ccccc2)cc1` [Sulfaphenazole], the “CYP450 Panel 2C9” value at CYP450 2C9 is reported as 101.2.

In the case of `CNC(=C[N+](=O)[O-])NCCSCc1ccc(CN(C)C)o1` [Ranitidine], the “A − B Permeability Ranking” value in the data set with Caco-2 is on record as “Low”.

One may read the Tmax as the time at which the peak concentration occurs. For orientation: half-life means the time in which the quantity being followed falls by half.
